Reference: the supplement of paper PMC11003180

Legend:
Test in all cases: drug sensitivity score (DSS) from 5-dose viability curve (DSS (area-based score, 0 = no response)); higher = more sensitive (stronger viability inhibition); extreme values may be limits of the assay
[1] = system: MDCK p60AmotL2-inducible + doxycycline (p60AmotL2 expressing); conditions: doxycycline: 10 ng/mL; 72 h
Method in brief: (§1)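 Parental MDCK cells and MDCK cells with doxycycline-inducible p60AmotL2, both given doxycycline at 10 ng/mL in the medium before plating, were dispensed at 2000 cells/well onto pre-spotted 384-well plates. The plates held an oncology library of 528 drugs at five doses (1-10,000 nM) and were incubated 72 h at 37 °C. Viability was read as CellTiter-Glo luminescence and scaled per plate between vehicle and positive controls. Drug sensitivity scores came from dose-response curve fits in the Breeze pipeline.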

[2] = system: MDCK wild-type + doxycycline; conditions: doxycycline: 10 ng/mL; 72 h
Method in brief: as §1

[3] = system: MDCK wild-type - doxycycline; conditions: doxycycline: none; 72 h
Method in brief: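 Drug sensitivity scores came from Breeze pipeline dose-response fits of CellTiter-Glo luminescence, scaled per plate between vehicle and positive controls. The assay used parental MDCK cells without doxycycline at 2000 cells/well, exposed for 72 h to 528 oncology drugs at five doses (1-10,000 nM).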

Row | Compound | drug sensitivity score [1] | drug sensitivity score [2] | drug sensitivity score [3]
1 | C[C@@H]1CCN(C(=O)CC#N)C[C@@H]1N(C)c1ncnc2[nH]ccc12 [Tofacitinib] | 0 | 0 | 0
2 | CC[C@@]1(O)C(=O)OCc2c1cc1n(c2=O)Cc2cc3c(CN(C)C)c(O)ccc3nc2-1 [Topotecan] | 11.5 | 10.1 | 8.1
3 | CN(C)CCOc1ccc(/C(=C(/CCCl)c2ccccc2)c2ccccc2)cc1 [Toremifene] | 4.6 | 3.6 | 0
4 | CC(C)C[C@@H](C(=O)N[C@H](C(=O)OC1CCCC1)c1ccccc1)[C@H](O)C(=O)NO [Tosedostat] | 2.5 | 1.7 | 1.4
5 | Cc1cc(Nc2cc(N3CCN(C)CC3)nc(Sc3ccc(NC(=O)C4CC4)cc3)n2)n[nH]1 [Tozasertib] | 8.6 | 4.2 | 1.4
6 | CC(=O)Nc1cccc(-n2c(=O)n(C3CC3)c(=O)c3c(Nc4ccc(I)cc4F)n(C)c(=O)c(C)c32)c1 [Trametinib] | 15.8 | 7.4 | 6.6
7 | CC1=C(/C=C/C(C)=C/C=C/C(C)=C/C(=O)O)C(C)(C)CCC1 [Tretinoin] | 0 | 0 | 0.7
8 | NC(=S)N/N=C/c1ncccc1N [Triapine] | 3.9 | 3.6 | 4.7
9 | O=c1[nH]c(=O)n([C@H]2C[C@H](O)[C@@H](CO)O2)cc1C(F)(F)F [Trifluridine] | 2.6 | 1.4 | 1.4
10 | O=C(CCCCCCC(=O)Nc1ccc([C@H]2O[C@@H](CSc3nc(-c4ccccc4)c(-c4ccccc4)o3)C[C@@H](c3ccc(CO)cc3)O2)cc1)NO [Tubacin] | 0 | 0 | 0
11 | CN1CCc2c(c3ccccc3n2Cc2ccc(C(=O)NO)cc2)C1 [Tubastatin A] | 0.7 | 0 | 0
12 | Cc1cc(Nc2ncnc3ccc(NC4=NC(C)(C)CO4)cc23)ccc1Oc1ccn2ncnc2c1 [Tucatinib] | 0 | 0 | 0
13 | Nc1cc(F)ccc1NC(=O)c1ccc(CNC(=O)/C=C/c2cccnc2)cc1 [Tucidinostat] | 2.6 | 2.4 | 0.8
14 | CN[C@@H]1C[C@H]2O[C@@](C)([C@@H]1OC)n1c3ccccc3c3c4c(c5c6ccccc6n2c5c31)C(=O)N[C@H]4O [UCN-01] | 14.5 | 18.5 | 18.1
15 | COC(=O)c1ccc2c(c1)[nH]c1ncnc(NCCCN3CCCCC3)c12 [UM729] | 3 | 0.9 | 0
16 | COc1cc2c(NC3CCN(C(C)C)CC3)nc(C3CCCCC3)nc2cc1OCCCN1CCCC1 [UNC0638] | 5 | 5.3 | 5.2
17 | COc1cc2c(NC3CCN(C(C)C)CC3)nc(N3CCC(F)(F)CC3)nc2cc1OCCCN1CCCC1 [UNC0642] | 0.2 | 0 | 0
18 | O=C(c1ccc(C(=O)N2CCC(N3CCCC3)CC2)c(Nc2ccccc2)c1)N1CCC(N2CCCC2)CC1 [UNC1215] | 0 | 0 | 0
19 | CCCCNc1ncc(C(=O)NCc2ccc(-n3ccnc3)cc2)c(NC2CCC(O)CC2)n1 (configuration not stated) [UNC2881] | 1.9 | 0 | 0
20 | NC(=O)c1cccc(-c2cccc(OC(=O)NC3CCCCC3)c2)c1 [URB597] | 0 | 0 | 0
21 | CC(C)Nc1cc(-c2c[nH]c(C(=O)N[C@H](CO)c3cccc(Cl)c3)c2)c(Cl)cn1 [Ulixertinib] | 9.6 | 4.9 | 3.2
22 | CC[C@@H]1CN(C(=O)NCC(F)(F)F)C[C@@H]1c1cnc2cnc3[nH]ccc3n12 [Upadacitinib] | 0 | 0 | 0

Row | Compound | drug sensitivity score [1] | drug sensitivity score [2] | drug sensitivity score [3]
23 | Cn1ncc(Cl)c1-c1cc(C(=O)N[C@H](CN)Cc2ccc(F)c(F)c2)oc1Cl [Uprosertib] | 0 | 0 | 0
24 | CS(=O)(=O)c1ccc(-c2cnc(N)c(C(=O)Nc3ccccc3)n2)cc1 [VE-821] | 0 | 0 | 0
25 | O=C(O)CC1CC(c2ccccc2)=NO1 (configuration not stated) [VGX-1027] | 0 | 0 | 0
26 | C=CC(=O)N1CC/C(=C\c2ccc(F)c([N+](=O)[O-])c2)C(=O)/C(=C/c2ccc(F)c([N+](=O)[O-])c2)C1 [VLX1570] | 17.2 | 17.3 | 15.5
27 | CNC(=O)c1ccccc1Nc1cc(Nc2ccc(N3CCOCC3)cc2OC)ncc1C(F)(F)F [VS-4718] | 5.6 | 4.7 | 3.6
28 | CCCC(CCC)C(=O)O [Valproic acid] | 0 | 0 | 0
29 | CCCCC(=O)OCC(=O)[C@]1(O)Cc2c(O)c3c(c(O)c2[C@@H](O[C@H]2C[C@H](NC(=O)C(F)(F)F)[C@H](O)[C@H](C)O2)C1)C(=O)c1c(OC)cccc1C3=O [Valrubicin] | 12.9 | 8.8 | 5.7
30 | COc1cc2/c(=N/c3ccc(Br)cc3F)nc[nH]c2cc1OCC1CCN(C)CC1 [Vandetanib] | 4.6 | 0 | 0
31 | CCc1c(C(=O)C(N)=O)c2c(OCC(=O)O)cccc2n1Cc1ccccc1 [Varespladib] | 0 | 0 | 0
32 | C[C@@H]1COC(Nc2ccc3ncnc(Nc4ccc(OCc5nccs5)c(Cl)c4)c3c2)=N1 [Varlitinib] | 7.2 | 3.6 | 1.6
33 | Clc1ccc(Nc2nnc(Cc3ccncc3)c3ccccc23)cc1 [Vatalanib] | 0 | 0 | 0
34 | C[C@]1(c2nc3c(C(N)=O)cccc3[nH]2)CCCN1 [Veliparib] | 0 | 0 | 0
35 | CCCS(=O)(=O)Nc1ccc(F)c(C(=O)c2c[nH]c3ncc(-c4ccc(Cl)cc4)cc23)c1F [Vemurafenib] | 0 | 0 | 0
36 | CC1(C)CCC(CN2CCN(c3ccc(C(=O)NS(=O)(=O)c4ccc(NCC5CCOCC5)c([N+](=O)[O-])c4)c(Oc4cnc5[nH]ccc5c4)c3)CC2)=C(c2ccc(Cl)cc2)C1 [Venetoclax] | 0 | 0 | 0
37 | O=C(/C=C\n1cnc(-c2cc(C(F)(F)F)cc(C(F)(F)F)c2)n1)NNc1ccccn1 [Verdinexor] | 10.1 | 10.6 | 9.2
38 | CCCCOc1nc(N)c2c(n1)N(Cc1cccc(CN3CCCC3)c1)CC(=O)N2 [Vesatolimod] | 0 | 0 | 0
39 | COc1cccc(-c2ccc(NC(=O)C3=C(C(=O)O)CCC3)c(F)c2)c1 [Vidofludimus] | 1.2 | 0.6 | 0.4
40 | CC[C@]1(O)C[C@@H]2CN(CCc3c([nH]c4ccccc34)[C@@](C(=O)OC)(c3cc4c(cc3OC)N(C)[C@H]3[C@@](O)(C(=O)OC)[C@H](OC(C)=O)[C@]5(CC)C=CCN6CC[C@]43[C@@H]65)C2)C1 [Vinblastine] | 25.2 | 24 | 25.6
41 | CC[C@]1(O)C[C@H]2CN(CCc3c([nH]c4ccccc34)[C@@](C(=O)OC)(c3cc4c(cc3OC)N(C=O)[C@H]3[C@@](O)(C(=O)OC)[C@H](OC(C)=O)[C@]5(CC)C=CCN6CC[C@]43[C@@H]65)C2)C1 [Vincristine] | 23.1 | 20.3 | 20.2
42 | CC[C@]12C=CCN3CC[C@@]4(c5cc([C@@]6(C(=O)OC)C[C@@H]7C[C@@H](C(C)(F)F)CN(Cc8c6[nH]c6ccccc86)C7)c(OC)cc5N(C)[C@H]4[C@@](O)(C(=O)OC)[C@@H]1OC(C)=O)[C@@H]32 [Vinflunine] | 3.3 | 3.7 | 4.3
43 | CCC1=C[C@@H]2CN(C1)Cc1c([nH]c3ccccc13)[C@@](C(=O)OC)(c1cc3c(cc1OC)N(C)[C@H]1[C@@](O)(C(=O)OC)[C@H](OC(C)=O)[C@]4(CC)C=CCN5CC[C@]31[C@@H]54)C2 [Vinorelbine] | 34.2 | 30.2 | 29.8
44 | CS(=O)(=O)c1ccc(C(=O)Nc2ccc(Cl)c(-c3ccccn3)c2)c(Cl)c1 [Vismodegib] | 0 | 0 | 0
